Experimental findings from ChEMBL document CHEMBL1130796, “7,8-Methylenedioxy-4H-2,3-benzodiazepin-4-ones as novel AMPA receptor antagonists” (Bioorg Med Chem Lett, 1998) are described below.

The term ED50 denotes the dose that gives a 50% effect, or the effect in half of the subjects. One may read the TD50 as the 50% point of the dose-response relation for the toxic effect studied.

Active and inactive are the calls of the source. No cut-off for these calls is given here.

Series [1] is filed under the species Mus musculus. The series can be described thus: Compound was evaluated for anticonvulsant activity against PTZ induced seizures (clonic phase) in swiss mice. The class given is functional.
The species named for series [2] is Mus musculus. As to the kind of experiment: Compound was evaluated for anticonvulsant activity against AMPA induced seizures in DBA/2 mice( clonic phase). The class given is functional.
The species entered for series [3] is Mus musculus. The series can be described thus: Compound was evaluated for anticonvulsant activity against MES induced seizures(tonic phase) in swiss mice. The class given is functional.
The species entered for series [4] is Mus musculus. As to the kind of experiment: Compound was evaluated for anticonvulsant activity against audiogenic induced seizures after pretreatment with aniracetam (tonic phase); p< 0.01. The class given is functional.
Series [5] is filed under the species Mus musculus. The series can be described thus: Compound was evaluated for anticonvulsant activity against AMPA induced seizures in DBA/2 mice( tonic phase). The class given is functional.
Series [6] in a line: Compound was evaluated for toxic dose on locomotor assessed by rotarod test in mice. The settings on record: mouse, in vivo. The class given is ADME.
The species entered for series [7] is Mus musculus. As to the kind of experiment: Compound was evaluated for anticonvulsant activity against audiogenic seizures in DBA/2 mice( clonic phase). The class given is functional.
For series [8], the species on record is Mus musculus. The series can be described thus: Compound was evaluated for anticonvulsant activity against audiogenic seizures in DBA/2 mice( tonic phase). The class given is functional.
The species named for series [9] is Mus musculus. As to the kind of experiment: Compound was evaluated for anticonvulsant activity against audiogenic induced seizures after pretreatment with aniracetam (clonic phase); p< 0.01. The class given is functional.
For series [10], the species on record is Mus musculus. The series can be described thus: Compound was evaluated for anticonvulsant activity against audiogenic induced seizures after pretreatment with aniracetam (clonic phase); p <0.01. The class given is functional.
The species entered for series [11] is Mus musculus. The series can be described thus: Compound was evaluated for anticonvulsant activity against audiogenic induced seizures after pretreatment with aniracetam (tonic phase); p <0.01. The class given is functional.
For series [12], the species on record is Mus musculus. The series can be described thus: Compound was evaluated for anticonvulsant activity against audiogenic induced seizures after pretreatment with aniracetam (clonic phase); ND means not detected. The class given is functional, organism-based.
For series [13], the species on record is Mus musculus. As to the kind of experiment: Compound was evaluated for anticonvulsant activity against audiogenic induced seizures after pretreatment with aniracetam (tonic phase); ND means not detected. The class given is functional, organism-based.
The species entered for series [14] is Mus musculus. As to the kind of experiment: Compound was evaluated for anticonvulsant activity against audiogenic induced seizures after pretreatment with aniracetam (tonic phase). The class given is functional.
For series [15], the species on record is Mus musculus. As to the kind of experiment: Compound was evaluated for anticonvulsant activity against audiogenic induced seizures after pretreatment with aniracetam (clonic phase). The class given is functional.
The nature of series [16]: Ratio between TD50 and ED50 from the clonic phase of the audiogenic seizures was determined. The class given is ADME.
The species named for series [17] is Mus musculus. The series can be described thus: Compound was evaluated for anticonvulsant activity against audiogenic induced seizures after pretreatment with aniracetam (clonic phase); p<0.01. The class given is functional.
The species named for series [18] is Mus musculus. As to the kind of experiment: Compound was evaluated for anticonvulsant activity against audiogenic induced seizures after pretreatment with aniracetam (tonic phase); p<0.01. The class given is functional.

As for `Nc1ccc(C2=NNC(=O)Cc3cc4c(cc32)OCO4)cc1`, the ED50 was found to be 21.2 mg/kg in the series filed under Mus musculus [1]; 11.2 mg/kg in the series filed under Mus musculus [2]; 9.48 mg/kg in the series listed under Mus musculus [3]; 11.7 mg/kg in the series listed under Mus musculus [4]; 8.41 mg/kg in the series filed under Mus musculus [5]; 6.44 mg/kg in the series listed under Mus musculus [7]. The ED50 in the series filed under Mus musculus [8] came out at 3.22 mg/kg; in the series listed under Mus musculus [9] it was 18.5 mg/kg. The TD50 in [6] amounted to 29.3 mg/kg.
In the case of `COc1ccc(C2=NNC(=O)Cc3cc4c(cc32)OCO4)cc1`, the TD50 in [6] was more than 62.1 mg/kg. For the same compound, the ED50 in the series filed under Mus musculus [7] and in the series listed under Mus musculus [8] was more than 37.2 mg/kg in each case.
For `COc1cc2c(cc1OC)C(c1ccc(N)cc1)=NNC(=O)C2`, the ED50 in the series listed under Mus musculus [10] was 20.2 mg/kg; in the series listed under Mus musculus [1], 6.99 mg/kg; in the series filed under Mus musculus [11] it was 18 mg/kg; in the series filed under Mus musculus [2], 9.93 mg/kg; in the series filed under Mus musculus [3], 4.92 mg/kg; in the series listed under Mus musculus [5], 7.73 mg/kg. The TD50 in series [6] was found to be 17.4 mg/kg.
Consider `Nc1cccc(C2=NNC(=O)Cc3cc4c(cc32)OCO4)c1`, for which the ED50 in the series listed under Mus musculus [1] amounted to 11.9 mg/kg; in the series filed under Mus musculus [2] it was 8.62 mg/kg; in the series filed under Mus musculus [3], 5.7 mg/kg; in the series listed under Mus musculus [5] it was 7.03 mg/kg; in the series filed under Mus musculus [7], 5.32 mg/kg; in the series filed under Mus musculus [8], 3.74 mg/kg. Further, the ED50 result in the series listed under Mus musculus [12] and in the series listed under Mus musculus [13] was “inactive” in each case. The compound further registered a TD50 in series [6] of 29.8 mg/kg.
In [6], `COc1cc2c(cc1OC)C(c1cccc(N)c1)=NNC(=O)C2` gave a TD50 of 15.9 mg/kg.
`COc1cc2c(cc1OC)C(c1ccccc1)=NNC(=O)C2`: the ED50 worked out at 19.1 mg/kg in the series listed under Mus musculus [1]; 18.5 mg/kg in the series filed under Mus musculus [2]; 10.6 mg/kg in the series filed under Mus musculus [3]; 44 mg/kg in the series listed under Mus musculus [14]; 11.9 mg/kg in the series listed under Mus musculus [5]; 60.2 mg/kg in the series filed under Mus musculus [15]. In the series listed under Mus musculus [7], this compound displayed an ED50 of 10 mg/kg. For the same compound, the TD50 in [6] was 42.1 mg/kg.
Turning to `O=C1Cc2cc3c(cc2C(c2ccc(O)cc2)=NN1)OCO3`, in series [6], the TD50 was 44.7 mg/kg. In addition, the ED50 in the series filed under Mus musculus [7] is 15.5 mg/kg; in the series filed under Mus musculus [8] it was 14.7 mg/kg. In addition, the selectivity ratio in [16] turned out to be 2.9.
Take `O=C1Cc2cc3c(cc2C(c2ccccc2)=NN1)OCO3`: the ED50 in the series listed under Mus musculus [1] is 23.1 mg/kg; in the series filed under Mus musculus [2], 20.8 mg/kg; in the series filed under Mus musculus [3], 12.6 mg/kg; in the series filed under Mus musculus [5], 16.8 mg/kg; in the series listed under Mus musculus [7], 12.1 mg/kg; in the series filed under Mus musculus [8], 11.4 mg/kg. In addition, the ED50 result in the series filed under Mus musculus [12] and in the series listed under Mus musculus [13] was “inactive” in each case. Besides, the TD50 in [6] is 44.6 mg/kg.
On to `CC1=NN=C(c2ccc(N)cc2)c2cc3c(cc2C1)OCO3` [GYKI-52466], for which the ED50 turned out to be 39.3 mg/kg in the series listed under Mus musculus [17]; 20 mg/kg in the series filed under Mus musculus [1]; 16.8 mg/kg in the series filed under Mus musculus [2]; 29.3 mg/kg in the series filed under Mus musculus [18]; 11.9 mg/kg in the series filed under Mus musculus [5]. In series [6], this compound showed a TD50 of 22.3 mg/kg.
